# Test results published in patent publication US6500421B1, “In vivo selection of primitive hematopoietic cells” (St. Jude Children's Research Hospital, priority 1999, dated 2002).
# What was measured:
# [1] = tested on: vector-expressing myeloid progenitor cells; conditions: mice, human DHFR variant (Zhao et al. 1994); cited from earlier work
# [2] = tested on: human myeloid progenitor cells; conditions: in vitro, MTX-containing cultures, human DHFR variant (Flasshove et al. 1995); cited from earlier work
# [3] = tested on: murine myeloid progenitors; assay: Defined in vitro liquid culture of unseparated murine bone marrow, myeloid progenitor assay after four days; type: cell-based, mice; conditions: TMTX 150 nM; for sensitization of progenitor cells to TMTX: TTI at 1.0 μM or 0.1 μM, 0.1 μM or 1 μM thymidine
# Procedure: FIGS. 1a & 1b a show TTIs effectively block nucleoside salvage and potentiate TMTX toxicity at physiological concentrations of thyrnidine. Unseparated bone marrow from normal C57B1/6 or WBBF1+/+ mice were cultured in DMEM plus dialyzed FBS with or without 150 nM TMTX, […] hypoxanthine and 0.1, 1.0 or 10 μM thymidine. In addition, either A) NBMPR or B) draflazine at 0.1 or 1.0 μM were added to the indicated suspension cultures. Progenitors were assayed by a semisolid methylcellulose-based myeloid progenitor assay after four days of suspension culture.
# We developed a defined in vitro liquid culture system to determine the mechanism by which murine myeloid progenitors escape killing with TMTX. This system involves the culture of unseparated murine bone marrow in medium supplemented with optimal concentrations of hematopoietic growth factors (IL-3 at 20 ng/ml, human IL-6 at 50 ng/ml, rat SCF at 50 ng/ml), and either undialyzed fetal bovine serum (FBS) or dialyzed FBS at 15% v/v final concentration, that has been depleted of detectable thymidine and hypoxanthine. The progenitor content is determined four days after culture initiation.
# The number of progenitors in cultures without TMTX were similar using either dialyzed or undialyzed serum. However, TMTX addition (150 nM) allowed survival of at least 50% of the myeloid progenitors in cultures containing undialyzed serum compared to 5% progenitor survival in cultures containing dialyzed serum.
# Thymidine transport inhibitors (TTI) were added to our defined liquid culture system. […] However, supraphysiological thymidine levels (10 μM) were able to overcome the TTI-specific blockage of thymidine import, restoring full progenitor survival.
# [4] = tested on: murine myeloid progenitors; assay: In vivo treatment of normal mice; bone marrow cellularity and myeloid progenitor content per femur; conditions: for marrow cellularity / number of myeloid progenitors in the marrow: ip five consecutive days, 24 hrs after last treatment, TMTX 130 mg/kg, NBMPR-P 20 mg/kg, draflazine 20 mg/kg, alone or combined; for number of myeloid progenitors in the marrow: relative to untreated control mice
# Procedure: FIGS. 3a & 3b show thymidine transport inhibitors sensitize murine progenitors to TMTX in vivo Normal C57B1/6, WBBF1+/+ or B6.C-H1^6/By (HW80) mice were administered TMTX (130 mg/kg), NBMPR-P (20 mg/kg) or draflazine (20 mg/kg) alone, or the combination of TMTX+NBMPR-P or TMTX+draflazine ip for five consecutive days. 24 hrs following the last treatment, mice were sacrificed and bone marrow cellularity and myeloid progenitor content per femur were analyzed relative to untreated mice.
# To determine if the antifolate trimetrexate (TMTX), could be used to inhibit hematopoietic progenitor cells which had not been genetically modified to contain and express a mutant dihydrofolate reductase, we treated mice with high doses of TMTX and measured the myeloid progenitor and stem cell content in the bone marrow. Mice were intraperitoneally administered 100 or 130 mg/kg TMTX for five consecutive days. Bone marrow cellularity and progenitor content was examined relative to untreated mice 24 hrs after the final treatment. […] Thus, although differentiated murine hematopoietic cells are highly sensitive to TMTX in vivo, immature myeloid progenitors resist it's cytotoxic effects.
# In order to determine whether the combination of TMTX and TTIs will kill murine myeloid progenitors in vivo, normal mice were intraperitoneally administered TMTX (130 mg/kg) together with either NBMPR-5′ monophosphate (NBMPR-P) (20 mg/kg) or draflazine (20 mg/kg) for five consecutive days. […] The myeloid progenitor content in the marrow was also measured following these various treatments. […] Thus, while TMTX alone is insufficient for the killing of myeloid progenitors in vivo, either draflazine or NBMPR-P can be used to sensitize progenitors to TMTX thereby allowing elimination of unmodified cells in vivo.
# [5] = tested on: hematopoietic stem cells; assay: Stem cell kill: marrow of treated C57B1/6J donors transplanted into W/Wv mice, hemoglobin electrophoresis; type: in vivo; conditions: donors given five daily doses of TMTX at 100 mg/kg/day
# Procedure: C57B1/6 donor mice were administered either 100 mg/kg TMTX, 100 mg/kg TMTX+20 mg/kg NBMPR-P, or 130 mg/kg TMTX+20 mg/kg NBMPR-P ip for five consecutive days. 24 hrs following the last treatment, bone marrow was harvested and transplanted into genetically anemic W/W^V mice. The hemoglobin phenotype of transplanted mnice was determined after 8 weeks.
# The above experiments indicate that the combination of an antifolate (TMTX) and TTIs effectively eliminates unmodified myeloid progenitors. Although selection at the progenitor level should be useful in a number of circumstances, selection at the level of repopulating stem cells should give the most durable and stable selection of vectormodified cells. To test if the combination of TMTX and NBMPR-P could be used to kill unmodified stem cells, C57B1/6J mice were treated with various drug combinations (intraperitoneal injections at the following doses: trimetrexate at 130 mg/kg, NBMPR-P at 20 mg/kg, and draflazine at 20 mg/kg) and then used as donors for bone marrow transplantation. Stem cell viability was measured by hemoglobin electrophoresis patterns in W/Wv mice used as transplant recipients. […]
# Repopulation can be monitored by hemoglobin electrophoresis, which can distinguish the pattern obtained from C57B1/6J erthryocytes versus the W/Wv background.
# [6] = tested on: human myeloid progenitor cells; assay: L22Y-DHFR or neo transduced human peripheral blood progenitors plated in semisolid media with TMTX; type: cell-based; conditions: mobilized human peripheral blood progenitors, L22Y-DHFR versus neo transduced, TMTX 0 to 500 ng/ml in semisolid media
# Procedure: Peripheral blood cells collected following chemotherapy and growth factor mobilization were prestimulated for 48 hrs with IL-3, IL-6 and SCF, followed by coculture on irradiated amphotropic retroviral producers (L22Y-DHFR or neo) for an additional 48 hrs. Nonadherent hematopoietic cells were then assayed for drug resistant progenitors by addition of increasing concentrations of TMTX to the semisolid methylcellulose cultures.
# Human progenitor cells were transduced as follows. Mononuclear cells were isolated by passing peripheral blood cells over a Ficoll gradient. These cells were cultured at 5×10^5 cells/ml in the presence of human IL-3 at 20 ng/ml, human IL-6 at 50 ng/ml, and human SCF at 50 ng/ml and 15% v/v fetal calf serum. After 48 hours, these cells were placed on plates containing an irradiated confluent layer of fibroblasts that were producing the amphotropic L22Y vector. The cytokine concentrations during this coculture period were identical to that used during the previous prestimulation phase. Protamine sulfate was also included during the coculture phase at a concentration of 4 μg/ml. After 48 hours of coculture, cells were washed and plated in semisolid media obtained from Stem Cell Technologies according to manufacturers specifications. This media was pretreated with thymidine phosphorylase at 1 unit/3 ml of media. […]
# [7] = tested on: human CD34 immunoselected progenitors; assay: Human CD34-enriched peripheral blood progenitors in defined liquid culture; type: cell-based; conditions: 1.0 μM draflazine, 150 nM trimetrexate, 100 μM hypoxanthine, thymidine 0 to 1.0 micromolar, dialyzed serum
# Procedure: CD34-enriched, mobilized peripheral blood progenitors were assayed in the defined suspension culture system, as described for murine cells in the legend to FIG. 1. Two separate human samples were examined, and progenitor survival is represented relative to progenitors cultured without TMTX.
# We examined the ability of draflazine to potentiate TMTX toxicity of human CD34 immunoselected progenitors in our defined liquid culture system comprising 15% dialyzed fetal calf serum, 20 ng/ml human IL-3, 50 ng/ml human IL-6, and 50 ng/ml human SCF in the presence-or absence of 1.0 μM draflazine, 100 μM hypoxanthine, 150 nM trimetrexate, and varying concentrations of thymidine ranging from 0 to 1.0 micromolar. […] CD34 selection was done using a Ceprate cell column (CellPro) according to the manufacturers instructions.
compound,measurement,setting,value
"CN(Cc1cnc2nc(N)nc(N)c2n1)c1ccc(C(=O)N[C@@H](CCC(=O)O)C(=O)O)cc1 [MTX, methotrexate]",increase in vector-expressing myeloid progenitor cells following MTX treatment,[1],2 fold
same,amplification of vector-expressing progenitor cells,[2],amplified two-fold
"O=[N+]([O-])c1ccc(CSc2ncnc3c2ncn3[C@@H]2O[C@H](CO)[C@@H](O)[C@H]2O)cc1 [NBMPR, nitrobenzylmercaptopurine riboside]",sensitization of progenitor cells to TMTX,[3],effectively sensitized progenitor cells to TMTX
"O=[N+]([O-])c1ccc(CSc2ncnc3c2ncn3[C@@H]2O[C@H](COP(=O)(O)O)[C@@H](O)[C@H]2O)cc1 [NBMPR-P, NBMPR-5′ monophosphate]",marrow cellularity,[4],neither TTI alone had any measurable effect
same,number of myeloid progenitors in the marrow,[4],no effect on progenitor survival
"COc1cc(NCc2ccc3nc(N)nc(N)c3c2C)cc(OC)c1OC [TMTX, trimetrexate]",number of myeloid progenitors and stem cells per femur,"[4]; TMTX 100 or 130 mg/kg ip for five consecutive days, 24 hrs after final treatment",remained the same in all groups of mice
same,bone marrow cellularity,"[4]; TMTX 100 or 130 mg/kg ip for five consecutive days, 24 hrs after final treatment, relative to untreated mice",severe marrow hypoplasia
same,number of myeloid progenitors in the marrow,[4],modest increase
same,rescue of myeloid progenitors from TMTX toxicity,"[3]; dialyzed serum treated with thymidine phosphorylase, hypoxanthine 100 μM alone added",did not rescue myeloid progenitors from TMTX toxicity
same,myeloid progenitor survival,"[3]; dialyzed serum, both thymidine and hypoxanthine added",fully restored myeloid progenitor survival
same,progenitor survival,"[3]; dialyzed serum, four days",5%
same,restoration of TMTX resistance of progenitors,"[3]; dialyzed serum, thymidine 1.0 μM alone added",did not restore TMTX resistance
same,survival of myeloid progenitors,"[3]; undialyzed serum, four days",at least 50%
same,hematopoietic repopulating ability of donor marrow,[5],failed to adversely effect
same,TMTX resistance of L22Y-DHFR transduced progenitors,[6],increased TMTX-resistance relative to control (neo) transduced progenitor cells
NC(=O)C1CN(CCCCC(c2ccc(F)cc2)c2ccc(F)cc2)CCN1CC(=O)Nc1c(Cl)cc(N)cc1Cl (stereo not shown) [draflazine],marrow cellularity,[4],neither TTI alone had any measurable effect
same,number of myeloid progenitors in the marrow,[4],no effect on progenitor survival
same,sensitization of progenitor cells to TMTX,[3],effectively sensitized progenitor cells to TMTX
same,potentiation of TMTX toxicity,[7],effectively potentiated TMTX toxicity
